# From patent US20140377219A1, “HIV INHIBITORS” (New york Blood Center, Inc., priority 2011, published 2014)
# Like-named read-outs stand apart in the source and are kept apart here.
# Tests used:
# TZM-bl cells = experiment: Cytotoxicity in TZM-bl cells (XTT); type: cell-based
# Procedure, shortened: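 TZM-bl cells (10^5/ml) combined with equal volumes of compound at graded concentrations and incubated 3 days at 37° C. Viability measured colorimetrically by XTT tetrazolium dye reduction.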
# [1] = tested on: Panel C env Du156, clone 12 (SVPC3); type: cell-based; details: TZM-bl, read-out: IC50 (μM) ± S.D., antiviral activity against HIV-1 envelope pseudoviruses
# [2] = tested on: Panel B env SC422661, clone B (SVPB8); type: cell-based; details: TZM-bl, read-out: IC50 (μM) ± S.D., antiviral activity against HIV-1 envelope pseudoviruses
# gp120-CD4 interaction = gp120-CD4 interaction (Human immunodeficiency virus type 1 group M subtype B, UniProt P03375); type: binding; details: FIG. 7
# HIV-1 BaL = experiment: Neutralization assay in PBMC (p24 ELISA); details: read-out: IC50 (μM) ± S.D., inhibitory activity on infection, BaL, subtype B, R5, laboratory strain
# Procedure: (§2) PBMCs were isolated from the blood of healthy donors at the New York Blood Center by standard density-gradient centrifugation using Histopaque-1077 (Sigma-Aldrich). The cells were cultured at 37° C. for 2 h. Non-adherent cells were collected and resuspended at 5×10^6 cells/ml in RPMI-1640 medium containing 10% (v/v) fetal bovine serum, 5 μg/ml of phytohemagglutinin, and 100 U/ml of IL-2 (Sigma-Aldrich), followed by incubation at 37° C. for three days.
# [3] = tested on: primary HIV-1 isolate 93MW959 (clade C, R5); experiment: Neutralization assay in PBMC (p24 ELISA); details: read-out: IC50 (μM) ± S.D., inhibitory activity on infection, 93MW959, subtype C
# Procedure: (§3) The inhibitory activity of small molecules on infection by primary HIV-1 isolates was determined. PBMCs were isolated from the blood of healthy donors at the New York Blood Center by standard density-gradient centrifugation using Histopaque-1077 (Sigma-Aldrich). The cells were cultured at 37° C. for 2 h. Non-adherent cells were collected and resuspended at 5×10^6 cells/ml in RPMI-1640 medium containing 10% (v/v) fetal bovine serum, 5 μg/ml of phytohemagglutinin, and 100 U/ml of IL-2 (Sigma-Aldrich), followed by incubation at 37° C. for three days.
# [4] = tested on: primary HIV-1 isolate RU570 (clade G, R5); experiment: Neutralization assay in PBMC (p24 ELISA); details: read-out: IC50 (μM) ± S.D., inhibitory activity on infection; RU570, subtype G, PBMC, R5, primary isolate
# Procedure: as §2
# [5] = tested on: primary HIV-1 isolate 93IN101 (subtype C, R5); experiment: Neutralization assay in PBMC (p24 ELISA); details: read-out: IC50 (μM) ± S.D., inhibitory activity on infection; 93IN101, subtype C, PBMC, R5, primary isolate
# Procedure: as §3
# [6] = tested on: primary HIV-1 isolate BCF02 (Group 0, R5); experiment: Neutralization assay in PBMC (p24 ELISA); details: read-out: IC50 (μM) ± S.D., inhibitory activity on infection; BCF02, Group 0, PBMC, R5, primary isolate
# Procedure: as §3
# [7] = tested on: HIV-1 RF/L-323-12-3 (protease resistant isolate); experiment: Multi-cycle neutralization assay in MT-2 cells; details: read-out: IC50 (μM) ± S.D., inhibitory activity on infection; HIV-1 RF/L-323-12-3, subtype B, MT-2, X4, protease resistant isolate
# HIV-1IIIB gp120 and sCD4 = target: T1, HIV-1IIIB gp120 and sCD4 (Human immunodeficiency virus type 1 group M subtype B, UniProt P03375); experiment: biochemical; type: binding; details: captured ELISA, sCD4 0.25 μg/ml; read-out: IC50 (μM ± SD), interaction HIV-1IIIB gp120 and sCD4
# T1 construct: recombinant gp120 from HIV-1IIIB and HIV-1MN
# Procedure: (§1) The compounds were incubated at graded concentrations with sCD4 (0.25 μg/ml) in the wells of polystyrene plates containing recombinant gp120, which was captured by coating the plates with a sheep anti-gp120 antibody D7324.
# HIV-1MN gp120 and sCD4 = target: T2, HIV-1MN gp120 and sCD4 (Human immunodeficiency virus type 1 group M subtype B, UniProt P05877); experiment: biochemical; type: binding; details: captured ELISA, sCD4 0.25 μg/ml; read-out: IC50 (μM ± SD), interaction HIV-1MN gp120 and sCD4
# T2 construct: recombinant gp120 from HIV-1IIIB and HIV-1MN
# Procedure: as §1
# [8] = tested on: CD4-dependent virus (ADA); type: cell-based; details: ADA in Cf2Th-CD4+-CCR5+ target cells, FIG. 5; read-out: IC50, inhibition of the CD4-dependent virus
# gp120 = gp120 (Human immunodeficiency virus type 1 group M subtype B, UniProt P03375); experiment: biochemical; type: binding, HIV-1; details: SPR, ligand gp120
# CD4 = CD4 (Homo sapiens, UniProt P01730); experiment: Surface plasmon resonance (SPR), ligand CD4; type: binding; details: SPR
# [9] = TZM-bl cells, XTT, 3 days, read-out: TZM-bl cells CC50 (μM ± SD)
# [10] = at the dose given as CC50 bound
SMILES,"% toxicity at that dose (number in parenthesis), TZM-bl cells (TZM-bl cells)",CC50 (TZM-bl cells),IC50 [1],IC50 [2],inhibition of the gp120-CD4 interaction (gp120-CD4 interaction),IC50 (HIV-1 BaL),IC50 [3],IC50 [4],IC50 [5],IC50 [6],IC50 [7],CC50 (TZM-bl cells; [9]),"% toxicity at that dose (number in parenthesis), TZM-bl cells (TZM-bl cells; [10])",IC50 (HIV-1IIIB gp120 and sCD4),IC50 (HIV-1MN gp120 and sCD4),IC50 [8],Rmax (RU) (gp120),binding to CD4 (CD4)
"Cc1nc(C(NC(=O)C(=O)Nc2ccc(Cl)cc2)C2CCCCN2)sc1CO.Cl (stereo not shown) [Compound 6, N^1-(4-chlorophenyl)-N^2-((5-(hydroxymethyl)-4-methylthiazol-2-yl)(piperidin-2-yl)methyl)oxalamide.HCl]",10%,> 22 µM,4.6 ± 0.13 µM,2.3 ± 0.2 µM,inhibit gp120-CD4 interaction in a dose dependent manner,35.8 ± 1.2 µM,> 43.5 µM,8.5 ± 0.8 µM,> 87 µM,~87 µM,14.7 ± 2.3 µM,–,–,–,–,–,–,–
"Cc1ccc(NC(=O)C(=O)NC(c2nc(C)c(CO)s2)C2CCCCN2)cc1F.Cl (stereo not shown) [Compound 28, N^1-(3-fluoro-4-methylphenyl)-N^2-((5-(hydroxymethyl)-4-methylthiazol-2-yl)(piperidin-2-yl)methyl)oxalamide.HCl]",–,–,–,2.5 ± 0.3 µM,–,23.7 ± 0.3 µM,> 42.5 µM,15.7 ± 0.2 µM,> 85 µM,> 85 µM,4.8 ± 0.9 µM,> 88 µM,0%,–,–,–,–,–
"Cc1nc(C(NC(=O)C(=O)Nc2ccc(Cl)c(F)c2)C2CCCCN2)sc1CCO.Cl (stereo not shown) [Compound 39, N^1-(4-chloro-3-fluorophenyl)-N^2-((5-(2-hydroxyethyl)-4-methylthiazol-2-yl)(piperidin-2-yl)methyl)oxalamide.HCl]",–,~61 µM,1.7 ± 0.2 µM,1.3 ± 0.1 µM,–,24.9 ± 4.5 µM,–,10.7 ± 0.5 µM,~81.5 µM,65.1 ± 3.5 µM,6.9 ± 1 µM,–,–,–,–,–,–,–
"CC1(C)CC(NC(=O)C(=O)Nc2ccc(Cl)cc2)CC(C)(C)N1 [NBD-556, reference compound]",–,–,–,–,in a dose dependent manner,≥ 118 µM,57.2 ± 8.7 µM,19.5 ± 2.3 µM,–,–,> 59 µM,> 60 µM,10%,2.11 µM,5.66 ± 0.8 µM,22.6 µM,6.99 RU,not to CD4
